From ChEMBL document CHEMBL3751795, “Discovery of pyridyl-based inhibitors of Plasmodium falciparum N-myristoyltransferase” (Medchemcomm, 2015)

Assays:
[1] = target: T1, Glycylpeptide N-tetradecanoyltransferase (Plasmodium falciparum (isolate 3D7), UniProt Q8ILW6); conditions: read-out: Ki(app)
T1 sequence (Q8ILW6 whole entry): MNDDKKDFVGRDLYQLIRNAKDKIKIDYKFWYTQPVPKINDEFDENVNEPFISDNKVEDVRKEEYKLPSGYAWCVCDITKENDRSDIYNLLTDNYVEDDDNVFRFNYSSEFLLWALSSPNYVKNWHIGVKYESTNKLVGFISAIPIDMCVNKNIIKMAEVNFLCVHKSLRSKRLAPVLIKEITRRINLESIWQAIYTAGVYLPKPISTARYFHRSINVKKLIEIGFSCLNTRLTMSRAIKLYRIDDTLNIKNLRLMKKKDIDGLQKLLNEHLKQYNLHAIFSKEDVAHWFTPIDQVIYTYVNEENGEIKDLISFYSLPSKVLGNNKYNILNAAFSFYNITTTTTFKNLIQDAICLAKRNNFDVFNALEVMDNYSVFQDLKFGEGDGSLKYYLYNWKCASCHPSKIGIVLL

[2] = Cytotoxicity against human HepG2 cells after 48 hrs by MTS assay; type: cell-based; conditions: read-out: LD50
[3] = target: T2, Glycylpeptide N-tetradecanoyltransferase 1 (Homo sapiens, UniProt P30419)
T2 sequence (P30419 whole entry): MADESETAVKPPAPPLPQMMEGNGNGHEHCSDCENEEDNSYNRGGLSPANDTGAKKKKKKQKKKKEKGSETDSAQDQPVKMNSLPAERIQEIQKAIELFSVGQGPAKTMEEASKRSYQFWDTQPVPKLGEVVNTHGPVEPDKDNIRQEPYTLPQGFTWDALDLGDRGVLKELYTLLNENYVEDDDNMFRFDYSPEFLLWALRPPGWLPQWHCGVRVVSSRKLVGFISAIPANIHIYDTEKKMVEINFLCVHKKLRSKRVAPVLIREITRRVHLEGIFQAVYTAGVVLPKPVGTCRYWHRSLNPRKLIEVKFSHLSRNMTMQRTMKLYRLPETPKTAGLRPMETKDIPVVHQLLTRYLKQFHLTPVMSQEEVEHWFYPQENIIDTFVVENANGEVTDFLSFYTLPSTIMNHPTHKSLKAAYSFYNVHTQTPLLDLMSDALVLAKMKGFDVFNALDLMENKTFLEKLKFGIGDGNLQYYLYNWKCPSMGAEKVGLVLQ
Description: Inhibition of human NMT1 by 7-diethylamine-3-(4'maleimidylphenyl)-4-methylcoumarin based fluorescence assay

Plasmodium falciparum = assay: Antiparasitic activity against Plasmodium falciparum 3D7 trophozoites infected in RBC assessed as reduction in cell viability incubated for 96 hrs SyBr green assay; conditions: 3D7, 96 h

Row | Compound | Ki [1] | CC50 at 48 h [2] | Ki [3] | EC50 (Plasmodium falciparum)
1 | Cc1ccc(-c2nc(Cc3ccccc3)no2)c(OC2CCNCC2)c1 | 620 nM | – | – | –
2 | Fc1cccc(-c2nc(Cc3ccccc3)no2)c1OC1CCNCC1 | 1500 nM | – | – | –
3 | Cc1nn(C)c(C)c1Cc1noc(-c2cccnc2OC2CCNCC2)n1 | 28 nM | > 100000 nM | – | –
4 | Fc1cccc(OC2CCNCC2)c1-c1nc(Cc2ccccc2)no1 | 4800 nM | – | – | –
5 | COc1cccc(Cc2noc(-c3ccc(Cl)cc3OC3CCNCC3)n2)c1 | 30 nM | – | – | –
6 | Fc1ccc(-c2nc(Cc3ccccc3)no2)c(OC2CCNCC2)c1 | 220 nM | – | 4900 nM | –
7 | Fc1ccc(OC2CCNCC2)c(-c2nc(Cc3ccccc3)no2)c1 | 240 nM | – | 1000 nM | –
8 | Clc1ccc(-c2nc(Cc3ccccc3)no2)c(OC2CCNCC2)c1 | 290 nM | – | – | –
9 | c1ccc(Cc2noc(-c3ncccc3OC3CCNCC3)n2)cc1 | 29000 nM | – | – | –
10 | COc1cccc(Cc2noc(-c3cccnc3OC3CCNCC3)n2)c1 | 27 nM | – | – | –
11 | COc1cccc(Cc2noc(-c3ccc(OC)cc3OC3CCNCC3)n2)c1 | 71 nM | – | – | –
12 | Cc1nn(C)c(C)c1Cc1noc(-c2cccnc2OC2CCN(C(C)C)CC2)n1 | 90 nM | > 100000 nM | – | –
13 | COc1ccc(OC2CCNCC2)c(-c2nc(Cc3ccccc3)no2)c1 | 4600 nM | – | 2300 nM | –
14 | COc1cccc(Cc2noc(-c3ccccc3OC3CCNCC3)n2)c1 | 190 nM | – | 1400 nM | –
15 | c1ccc(Cc2noc(-c3cccnc3OC3CCNCC3)n2)cc1 | 140 nM | – | 1700 nM | –
16 | Cc1ccc(OC2CCNCC2)c(-c2nc(Cc3ccccc3)no2)c1 | 29000 nM | – | – | –
17 | COc1ccc(-c2nc(Cc3ccccc3)no2)c(OC2CCNCC2)c1 | 180 nM | – | 1200 nM | –
18 | COc1cccc(-c2nc(Cc3ccccc3)no2)c1OC1CCNCC1 | 17000 nM | – | – | –
19 | Cc1cccc(-c2nc(Cc3ccccc3)no2)c1OC1CCNCC1 | 39000 nM | – | – | –
20 | c1cnc(OC2CCNCC2)c(-c2nc(Cc3cccc4ncccc34)no2)c1 | 1.7 nM | 65000 nM | 24 nM | 210 nM
21 | c1ccc(Cc2noc(-c3ccccc3OC3CCNCC3)n2)cc1 | 1400 nM | – | – | –
22 | Clc1ccc(OC2CCNCC2)c(-c2nc(Cc3ccccc3)no2)c1 | 520 nM | – | – | –
23 | COc1cccc(Cc2noc(-c3ccc(F)cc3OC3CCNCC3)n2)c1 | 71 nM | – | – | –
24 | Cc1nn(C)c(C)c1Cc1noc(-c2cccnc2OC2CCN(C)CC2)n1 | 570 nM | – | – | > 30000 nM
25 | CCN1CCC(Oc2ncccc2-c2nc(Cc3c(C)nn(C)c3C)no2)CC1 | 340 nM | – | – | > 10000 nM
